Key:
[1] = system: RET; test: Flow cytometry of kinase/CREB phosphorylation in LSK cells upon GFL stimulation; format: cell-based, mouse; conditions: GFLs for 1 h, FIG. 3g
Protocol: Intracellular stainings were done using BrdU Flow Kit and anti-BrdU (3D4), 7AAD, anti-Ki-67 (B56), anti-S6 (pS235/pS236) (N7-548) and anti-Akt (pT308) (JI-223.371) from BD Pharmingen, anti-human RET (132507) from R&D Systems, anti-PIP3 (Z-P345) from Echelon Biosciences, anti-CREB (pS133) (87G3), anti-p38 (pT180/Y182) (28B10), anti-Akt (pS473) (D9E) and anti-ERK1/2 (pT202/pY204) (D13.14.4E) from Cell Signaling Technology.
10^6 E14.5 WT Lin^negcKit^pos cells were cultured in DMEM and starved for 2 hours. To test CREB phosphorilation upon GFL stimulation Lin^negcKit^poscells were stimulated 1 hour with 500 ng/ml of each GFL and co-receptor. LSK cells were purified by flow cytometry and stimulated overnight with GFL/GFRα combinations in order to determine Bcl2 and Bcl2l1 expression levels. […] Lin^negcKit^pos cells were stimulated with GFL/GFRα for 120 hours and 2.5×10^5 CD45.2^posLin^negcKit^pos cells were sequentially analysed by flow cytometry and transplanted into lethally irradiated hosts with a radio-protective dose 2.5×10^5 CD45.1 BM cells. […] When analysed by flow cytometry haematopoietic progenitors were further stained with an LSK antibody cocktail.

[2] = system: lethally irradiated mice; test: Competitive transplantation of GFL pre-treated progenitors into lethally irradiated hosts; format: in vivo, mouse; conditions: FIG. 4e-g
Protocol: Mice: C57BL/6J (CD45.2 and CD45.1), Rag1^−/− (CD45.2 and CD45.1)^29, Vav1-iCre^11, Gfra1^−/−22, Gfra2^−/−24, Gfra3^−/−23, Ret^MEN2B20 and Ret^−/−9 were on a C57BL/6J genetic background. All mice strains were bred and maintained at IMM animal facility. Animal procedures were performed in accordance to national and institutional guidelines. Generation of Ret Conditional Knockout Mice: To generate mice harbouring a conditional Ret knock-out allele we engineered a targeting construct that firstly, included the introduction of a floxed 2.1 kb, Neomycin resistance (Neo^r) cassette under the control of the phosphoglycerate kinase-1 (PGK) promoter and a polyA tail (pA). This cassette (PGK-NEO^r-pA) was inserted approximately 4.5 kb upstream at the Xho I site of the pBluescript KS (pBS KS) vector that carried approximately 13 kb of the 5′ end of mouse Ret genomic locus flanking exon 1. […] Colony-Forming Units Assays: 5×10^3 E14.5 Lin^negcKit^pos cells MACS purified (MiltenyiBiotec) from WT, Ret^−/− or Ret^MEN2B were cultured in M3434 (Stem Cell Technologies) and scored at day 8 to 10 by flow cytometry and microscope analysis. 3×10^4 E14.5 Lin^negcKit^pos cells were MACS (MiltenyiBiotec) purified from WT, Ret^−/− or Ret^MEN2B and were injected into lethally irradiated mice (9Gy) and CFUs scored after 8 to 10 days by flow cytometry and microscope analysis. […]

[3] = system: E14.5 LSK cells; test: Survival (AnnexinV) of LSK/HSC cells cultured with GFL/GFRα; format: cell-based, mouse; conditions: versus conventional medium / medium alone, FIG. 3d-e, FIG. 10c
Protocol: (§1) 10^6 E14.5 WT Lin^negcKit^pos cells were cultured in DMEM and starved for 2 hours. To test CREB phosphorilation upon GFL stimulation Lin^negcKit^poscells were stimulated 1 hour with 500 ng/ml of each GFL and co-receptor. LSK cells were purified by flow cytometry and stimulated overnight with GFL/GFRα combinations in order to determine Bcl2 and Bcl2l1 expression levels. For inhibition experiments cells were incubated 2 hours prior GFLs stimulation, to test CREB phosphorilation, or during overnight stimulation with GFLs, to determine Bcl2 and Bcl2l1 expression levels, with SB 202190 and PD98,059 from Sigma-Aldrich or Akt1/2, Akt Inhibitor VIII and CBP-CREB Interaction Inhibitor from Calbiochem. Lin^negcKit^pos cells were stimulated with GFL/GFRα for 120 hours and 2.5×10^5 CD45.2^posLin^negcKit^pos cells were sequentially analysed by flow cytometry and transplanted into lethally irradiated hosts with a radio-protective dose 2.5×10^5 CD45.1 BM cells. To detect Annexin V, 4×10^4 E14.5 WT or Ret^−/−Lin^negckit^pos cells per well were cultured overnight in DMEM alone or with GFL/GFRα. When analysed by flow cytometry haematopoietic progenitors were further stained with an LSK antibody cocktail.

[4] = system: RET; test: Bcl2 and Bcl2l1 expression (RT-PCR) in LSK cells upon GFL treatment; format: cell-based, mouse; conditions: overnight GFL/GFRα stimulation; FIG. 3h
Protocol: as §1, with “To detect Annexin V, 4×10^4 E14.5 WT or Ret^−/−Lin^negckit^pos cells per well were cultured overnight in DMEM alone or with GFL/GFRα.” left out
Real-time PCR analysis: RNA was extracted from cell suspension using RNeasy Mini Kit or RNeasy Micro Kit (Qiagen). […] Variance was analyzed using F-test. […] Kaplan-Meier survival curves were analyzed using a log rank test. […]

[5] = system: HSCs; test: HSC expansion in culture with RET ligands (recovered LSKs and HSCs treated with GFLs for 4 days); format: cell-based, mouse; conditions: for HSC expansion in culture (true HSCs recovered): versus conventional medium only, FIG. 3d

glial cell-line derived neurotrophic factor (GDNF) ligands [GFLs]
ERK1/2, PI3K/Akt phosphorylation in LSKs [1]: stable
p38/MAP kinase and CREB phosphorylation in LSKs ([1]; FIG. 10e): rapid p38/MAP kinase and CREB phosphorylation
transplantation fitness and HSC engraftment ([2]; E14.5 LSKs treated with GFLs, transplanted with competitor CD45.1 BM, versus untreated): strikingly increased transplantation fitness and HSC engraftment
increase in transplantation efficiency of expanded HSCs ([2]; versus HSCs expanded in conventional medium): circa 300 fold
LSK and HSC survival in culture [3]: efficiently increased LSK and HSC survival
LSK and HSC survival in culture ([3]; listed as RET ligands): survive almost three times better
Bcl2/Bcl2l1 expression by LSKs [4]: increased Bcl2/Bcl2l1 expression
differentiation of cells in expansion culture ([5]; RET agonist treatment): do not alter the differentiation of cells
HSC expansion in culture (true HSCs recovered) ([5]; listed as RET agonist): three times more true HSCs
HSC expansion in culture (true HSCs recovered) ([5]; listed as RET ligands): three times higher
number of cells recovered in expansion culture ([5]; versus current conventional medium): duplicate the number or cells recovered
increase of bona fide HSCs that maintain their stemness ([5]; versus current state-of-the-art expansion methods): 20 fold
